Counter-ions that a name gives are not always drawn.

The first assay deals with T1, human orexin-2 (hOX2) receptor (Homo sapiens, UniProt O43614).
T1 construct: expressed in transfected cells
T1 sequence (O43614 1-444): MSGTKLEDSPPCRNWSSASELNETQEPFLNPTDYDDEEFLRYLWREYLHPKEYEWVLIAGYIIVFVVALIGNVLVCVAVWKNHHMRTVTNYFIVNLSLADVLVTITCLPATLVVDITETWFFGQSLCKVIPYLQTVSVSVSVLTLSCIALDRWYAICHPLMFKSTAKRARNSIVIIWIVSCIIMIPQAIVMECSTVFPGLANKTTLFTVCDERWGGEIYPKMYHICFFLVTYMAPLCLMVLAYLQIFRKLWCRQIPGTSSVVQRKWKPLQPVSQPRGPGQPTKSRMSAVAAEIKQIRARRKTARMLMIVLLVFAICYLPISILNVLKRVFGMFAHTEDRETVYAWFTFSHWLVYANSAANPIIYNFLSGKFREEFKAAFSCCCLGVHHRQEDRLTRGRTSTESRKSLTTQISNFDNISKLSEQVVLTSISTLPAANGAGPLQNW
Nature of the assay: Intracellular Ca2+ mobilization assay (FLIPR), CHO(dHFr-) cells expressing hOX2, orexin-A at EC80 as agonist. Conditions: Kb=IC50/(1+[A]/EC50); CHO(dHFr-)-OX2R cells, antagonist applied 25 min before orexin-A EC80. It is filed as cell-based. In a few lines: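 Fluo-4-loaded CHO(dHFr−) cells stably expressing hOX2 were preincubated 25 min at 37 °C with antagonist (11 concentrations, 0.0001–10 μM), then challenged with orexin-A at its daily-determined EC80. Peak fluorescence over basal read by FLIPR; IC50 from Hill fit, Kb via Kb=IC50/(1+[A]/EC50).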
The compound `Cc1ccc(N(CCc2ccc(F)c(F)c2)C(=O)C(N)c2ccc(Cl)s2)cc1C` (centres unmarked) [Example 214, 2-Amino-2-(5-chloro-thiophen-2-yl)-N-[2-(3,4-difluoro-phenyl)-ethyl]-N-(3,4-dimethyl-phenyl)-acetamide hydrochloride] came in with a Kb of 0.0966 µM. Same read-out and setting: the figure for `Cc1ccc(N(CCc2ccc(F)c(F)c2)C(=O)C(N)c2ccsc2)cc1C` (centres unmarked) [Example 216, 2-Amino-N-[2-(3,4-difluoro-phenyl)-ethyl]-N-(3,4-dimethyl-phenyl)-2-thiophen-3-yl-acetamide hydrochloride] is 0.0302 µM; for `Cc1ccc(N(CCc2ccc(C(F)(F)F)cc2)C(=O)C(=O)c2ccccc2)cc1C` [Example 218, N-(3,4-Dimethyl-phenyl)-2-oxo-2-phenyl-N-[2-(4-trifluoromethyl-phenyl)-ethyl]-acetamide] it is 0.0555 µM; for `Cc1ccc(N(CCc2ccc(C(F)(F)F)cc2)C(=O)Cn2c(C)nc3ccccc32)cc1C` [Example 236, N-(3,4-Dimethyl-phenyl)-2-(2-methyl-benzoimidazol-1-yl)-N-[2-(4-trifluoromethyl-phenyl)-ethyl]-acetamide] it is 0.076 µM. On the same count and under the same terms, then `N[C@H](C(=O)N(CCc1ccc(F)cc1)c1ccc2c(c1)CCO2)c1ccccc1` [Example 239, (S)-2-Amino-N-(2,3-dihydro-benzofuran-5-yl)-N-[2-(4-fluoro-phenyl)-ethyl]-2-phenyl-acetamide hydrochloride], with 0.025 µM; and `N[C@H](C(=O)N(CCc1ccc(F)cc1)c1ccc2c(c1)OCC2)c1ccccc1` [Example 243, (S)-2-Amino-N-(2,3-dihydro-benzofuran-6-yl)-N-[2-(4-fluoro-phenyl)-ethyl]-2-phenyl-acetamide hydrochloride], with 0.0604 µM. The compound `CCc1ccc(N(CCc2ccc(F)cc2)C(=O)[C@@H](N)c2ccccc2)cc1` [Example 244, (S)-2-Amino-N-(4-ethyl-phenyl)-N-[2-(4-fluoro-phenyl)-ethyl]-2-phenyl-acetamide hydrochloride] registered a Kb of 0.049 µM. On the same count and under the same terms, the figure for `Cc1ccc(CCN(C(=O)[C@@H](NC(=O)CN)c2ccccc2)c2ccc(C)c(C)c2)cc1` [Example 248, (S)-2-(2-Amino-acetylamino)-N-(3,4-dimethyl-phenyl)-2-phenyl-N-(2-p-tolyl-ethyl)-acetamide] is 0.0353 µM. The same measure, in the same setting: then `Cc1ccc(CCN(C(=O)[C@@H](NC(=O)[C@@H](N)c2ccccc2)c2ccccc2)c2ccc(C)c(C)c2)cc1` [Example 249, (S)-2-((S)-2-Amino-2-phenyl-acetylamino)-N-(3,4-dimethyl-phenyl)-2-phenyl-N-(2-p-tolyl-ethyl)-acetamide], with 0.082 µM; and `Cc1ccc(CCN(C(=O)[C@@H](NC(=O)[C@H](C)N)c2ccccc2)c2ccc(C)c(C)c2)cc1` [Example 251, (S)-2-Amino-N-{(S)-[(3,4-dimethyl-phenyl)-(2-p-tolyl-ethyl)-carbamoyl]-phenyl-methyl}-propionamide], with 0.0102 µM.

The subject of a further assay is rat.
Experiment: not given
Conditions: intracerebroventricular (icv) administration; cited from earlier work.
Take “OX-A: "orexin-A/hypocretin1 (OX-A, 33 amino acids)", hypothalamic neuropeptide; "Orexin A ... was used as agonist" (QPLPDCCRQKTCSCRLYELLHGAGNHAAGILTL; Orexin-A; UniProt O43612 34-66, looked up)”: the “reduction of total REM sleep” value is listed as 84%.

The values above are taken from patent US20090036422A1 (priority 2007, published 2009).
